Patent publication US20100178259A1, “REDUCING FIBROSIS USING MATRIX METALLOPROTEINASE INHIBITORS” (The Regents of The University of Michigan, priority 2009, published 2010)
“Also recorded” adds a separate entry of the source.

Experiments:
[1] = test system: HRS/J hairless mice skin exposed to UV irradiation; experiment: UV irradiation sunburn/scarring in hairless mice, topical treatment, skin cross-section histology; type: in vivo, mouse; details: UV 200-400 mJ/square cm, topical 1% MMI270 in 70% ethanol (95%) and 30% propylene glycol daily after UV exposure, compared to untreated irradiated skin (FIG. 2)
Method: The following experiments illustrate embodiments of the present technology. Experimental mice (HRS/J hairless mice) are treated with UV irradiation at a dosage that results in sunburn and consequent scarring of the skin. UV exposure includes daily exposure (Mon-Fri), or 3× per week (Mon, Wed, Fri), at 200-400 mJ/square cm, until scarring occurs, typically after 2-3 weeks. The UVB/A2 source is FS tubes filtered with Kodacel to remove wavelengths below 290 nm. Non-irradiated mice serve as non-wounded controls.
FIG. 1 is a photograph of a tissue cross-section of non-irradiated mouse skin. The outer surface of the skin includes a layer 110 of dead skin cells overtop the epidermis 120. Located beneath the epidermis 120, is a region comprising extracellular matrix 130, which includes collagen and other proteins. A layer of fat cells 140 underlies the extracellular matrix 130 and is followed by muscle 150. Hair follicles 160 can be seen embedded within the extracellular matrix 130 region.
FIG. 2 is a photograph of a tissue cross-section of mouse skin that was exposed to UV irradiation to cause a burn and that was not treated with MMP inhibitor. Morphology of the skin changes in response to the burn wound which can subsequently form into a scar. The outer skin surface and layer 210 of dead skin cells overlies a thickened epidermis 220 followed by a thickened region of extracellular matrix 230. […]

MMP-2 = target: T1, MMP-2 (Homo sapiens, UniProt P08253); details: in vitro; cited from earlier work
T1 sequence (P08253 110-660): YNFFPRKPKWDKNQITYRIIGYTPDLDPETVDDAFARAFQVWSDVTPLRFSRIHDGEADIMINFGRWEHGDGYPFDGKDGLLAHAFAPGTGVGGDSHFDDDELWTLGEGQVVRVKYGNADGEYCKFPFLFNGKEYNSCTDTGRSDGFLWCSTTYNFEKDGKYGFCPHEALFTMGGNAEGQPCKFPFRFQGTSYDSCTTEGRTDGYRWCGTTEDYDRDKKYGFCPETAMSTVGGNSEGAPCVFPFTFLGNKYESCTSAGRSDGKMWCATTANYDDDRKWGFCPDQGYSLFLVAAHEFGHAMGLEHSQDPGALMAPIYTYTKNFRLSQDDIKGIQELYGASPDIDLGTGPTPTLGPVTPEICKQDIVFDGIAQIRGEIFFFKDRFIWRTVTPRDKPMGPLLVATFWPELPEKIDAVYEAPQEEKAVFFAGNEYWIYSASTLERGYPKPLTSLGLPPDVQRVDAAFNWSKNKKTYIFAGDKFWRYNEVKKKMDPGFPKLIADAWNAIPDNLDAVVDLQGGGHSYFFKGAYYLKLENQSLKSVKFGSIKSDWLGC

MMP-3 = MMP-3 (Homo sapiens, UniProt P08254); details: in vitro; cited from earlier work
Sequence of MMP-3 (P08254 100-477, species assumed): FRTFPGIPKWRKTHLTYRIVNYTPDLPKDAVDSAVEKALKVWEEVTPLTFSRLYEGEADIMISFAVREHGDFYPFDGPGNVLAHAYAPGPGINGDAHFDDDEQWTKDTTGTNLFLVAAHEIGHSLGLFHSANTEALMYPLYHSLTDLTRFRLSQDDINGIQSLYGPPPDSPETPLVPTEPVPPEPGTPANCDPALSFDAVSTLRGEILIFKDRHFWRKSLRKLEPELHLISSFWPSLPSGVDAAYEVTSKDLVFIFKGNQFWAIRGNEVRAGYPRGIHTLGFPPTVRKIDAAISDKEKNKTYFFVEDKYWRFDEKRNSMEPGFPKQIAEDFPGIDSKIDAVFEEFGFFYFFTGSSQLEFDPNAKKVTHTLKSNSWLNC

MMP-9 = MMP-9 (Homo sapiens, UniProt P14780); details: in vitro; cited from earlier work
Sequence of MMP-9 (P14780 94-707, species assumed): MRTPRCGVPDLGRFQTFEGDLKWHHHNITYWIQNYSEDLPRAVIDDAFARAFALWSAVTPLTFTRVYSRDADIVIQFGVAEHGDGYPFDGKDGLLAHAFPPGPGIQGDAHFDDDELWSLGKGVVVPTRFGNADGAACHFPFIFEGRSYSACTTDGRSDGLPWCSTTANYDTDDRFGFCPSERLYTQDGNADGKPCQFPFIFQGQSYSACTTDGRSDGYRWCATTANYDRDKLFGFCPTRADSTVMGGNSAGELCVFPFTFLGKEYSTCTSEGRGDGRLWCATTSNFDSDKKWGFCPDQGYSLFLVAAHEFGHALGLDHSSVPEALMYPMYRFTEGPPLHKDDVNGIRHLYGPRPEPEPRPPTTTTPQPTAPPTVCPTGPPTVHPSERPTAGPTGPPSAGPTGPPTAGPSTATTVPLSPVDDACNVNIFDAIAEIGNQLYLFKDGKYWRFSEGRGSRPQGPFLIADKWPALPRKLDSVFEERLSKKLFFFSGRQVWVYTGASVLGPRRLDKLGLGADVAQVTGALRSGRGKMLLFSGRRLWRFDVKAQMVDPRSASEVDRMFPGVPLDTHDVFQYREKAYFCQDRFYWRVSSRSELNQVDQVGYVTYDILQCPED

MMP-1 = target: T2, MMP-1 (Homo sapiens, UniProt P03956); details: in vitro; cited from earlier work
T2 sequence (P03956 100-469): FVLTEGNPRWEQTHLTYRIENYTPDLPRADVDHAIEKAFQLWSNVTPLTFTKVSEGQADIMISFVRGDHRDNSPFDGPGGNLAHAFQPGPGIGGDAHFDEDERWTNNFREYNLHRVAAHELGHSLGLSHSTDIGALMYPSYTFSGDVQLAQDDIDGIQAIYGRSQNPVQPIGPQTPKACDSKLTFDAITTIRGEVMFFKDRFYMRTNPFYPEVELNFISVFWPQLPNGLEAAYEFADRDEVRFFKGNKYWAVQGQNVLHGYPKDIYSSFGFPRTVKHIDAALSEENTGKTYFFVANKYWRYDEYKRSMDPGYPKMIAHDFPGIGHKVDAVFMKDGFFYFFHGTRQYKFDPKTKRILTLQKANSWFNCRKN

For `COc1ccc(S(=O)(=O)N(Cc2cccnc2)[C@@H](C(=O)NO)C(C)C)cc1` [MMI270, N-hydroxy-2(R)-[[4-methoxybenzenesulfonyl]-(3-picolyl)amino]-3-methylbutanamide], the “expansion and thickening of the epidermis and extracellular matrix” value [1] is listed as “less expansion and thickening of the epidermis and extracellular matrix; also recorded: decrease in thickness of the extracellular matrix”, the “concentration inhibiting MMP-2 activity” value (MMP-2) is listed as “nanomolar concentrations” and the “concentration inhibiting MMP-3 activity” value (MMP-3) is listed as “nanomolar concentrations”. The “concentration inhibiting MMP-9 activity” value (MMP-9) was “nanomolar concentrations” and the “concentration inhibiting MMP-1 activity” value (MMP-1) was “nanomolar concentrations”.
